Test results published in publication PMC10184128 (Journal of Medicinal Chemistry, 2023).

Experiments:
[1] = biological target: full-length human Nurr1 (NBRE) (Homo sapiens, UniProt P43354); settings: all compounds tested at 10 μM, n = 3
human Nurr1 = human Nurr1 (Homo sapiens, UniProt P43354); settings: for activation of Gal4-Nurr1 (hybrid assay): all compounds tested at 10 μM, n = 3; for EC50(Nurr1): Gal4 hybrid reporter gene assay, mean ± S.E.M., n ≥ 3, inactive = at 10 μM
NOR1 (NR4A3) = biological target: T1, NOR1 (NR4A3) (Homo sapiens, UniProt Q92570); assay: cell-based
T1 sequence (Q92570 394-623 limits assumed): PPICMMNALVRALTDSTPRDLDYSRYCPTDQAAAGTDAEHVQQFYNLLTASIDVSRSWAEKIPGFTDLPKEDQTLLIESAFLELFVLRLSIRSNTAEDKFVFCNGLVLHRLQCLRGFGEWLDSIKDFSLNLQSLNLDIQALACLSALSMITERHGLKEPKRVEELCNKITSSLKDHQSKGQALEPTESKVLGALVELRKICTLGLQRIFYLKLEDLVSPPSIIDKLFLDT

Chain of full-length human Nurr1 (NBRE) (P43354 whole entry, the tested form may be a part): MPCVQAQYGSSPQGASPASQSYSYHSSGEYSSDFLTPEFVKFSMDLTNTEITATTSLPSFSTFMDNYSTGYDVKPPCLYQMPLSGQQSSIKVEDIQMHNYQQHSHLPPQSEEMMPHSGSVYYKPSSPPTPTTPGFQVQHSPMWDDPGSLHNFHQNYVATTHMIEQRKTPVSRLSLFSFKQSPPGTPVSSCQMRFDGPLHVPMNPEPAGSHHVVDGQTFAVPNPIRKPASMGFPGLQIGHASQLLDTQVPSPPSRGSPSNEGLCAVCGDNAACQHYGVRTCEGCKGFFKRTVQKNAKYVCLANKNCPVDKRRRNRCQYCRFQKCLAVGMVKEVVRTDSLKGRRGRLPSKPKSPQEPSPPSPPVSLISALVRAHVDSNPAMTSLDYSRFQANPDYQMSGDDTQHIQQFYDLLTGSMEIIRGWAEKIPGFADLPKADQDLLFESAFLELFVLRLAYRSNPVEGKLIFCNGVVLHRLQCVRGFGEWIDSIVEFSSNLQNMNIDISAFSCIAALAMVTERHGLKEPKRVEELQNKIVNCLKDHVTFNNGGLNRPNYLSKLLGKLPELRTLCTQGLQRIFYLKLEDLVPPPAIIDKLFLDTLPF
Chain of human Nurr1 (P43354 360-595 limits assumed): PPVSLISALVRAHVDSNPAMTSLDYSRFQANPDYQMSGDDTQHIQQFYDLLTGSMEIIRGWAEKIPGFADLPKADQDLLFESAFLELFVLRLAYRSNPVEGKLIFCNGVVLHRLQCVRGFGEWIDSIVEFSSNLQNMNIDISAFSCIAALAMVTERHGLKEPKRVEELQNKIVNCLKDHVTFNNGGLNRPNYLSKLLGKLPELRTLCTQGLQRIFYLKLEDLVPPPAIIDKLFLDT

| EC50(Nurr1) (human Nurr1) | EC50 (NOR1 (NR4A3)) | Structure (SMILES) | activation of full-length Nurr1 (NBRE) [1] | activation of Gal4-Nurr1 (hybrid assay) (human Nurr1) |
| --- | --- | --- | --- | --- |
|  |  | Cc1ccccc1-c1ccc(-c2cc(C(=O)O)c3c(c2)nnn3C)cc1 [AG-636] | No other tested DHODH inhibitor caused activation | No other tested DHODH inhibitor caused activation |
|  |  | O=C(Nc1c(F)c(F)c(-c2ccccc2)c(F)c1F)c1c(=O)[nH]n2ccccc12 [MEDS433] | No other tested DHODH inhibitor caused activation | No other tested DHODH inhibitor caused activation |
| inactive (10 μM) |  | [2H]C([2H])([2H])Oc1cccc(C23CCC(NC(=O)C4=C(C(=O)O)CCC4)(CC2)CC3)c1 [compound 8] |  |  |
| inactive (10 μM) |  | [2H]C([2H])([2H])Oc1cccc(-c2ccc(N(C)C(=O)C3=C(C(=O)O)CCC3)c(F)c2)c1 [compound 9] |  |  |
|  | 1300 ± 300 nM | C#CCOc1cccc(-c2ccc(NC(=O)C3=C(C(=O)O)CCC3)c(F)c2)c1 [compound 29, 2-[(3-Fluoro-3′-prop-2-yn-1-yloxy[1,1′-biphenyl]-4-yl)carbamoyl]cyclopent-1-ene-1-carboxylic acid] |  |  |
|  |  | COc1cccc(-c2cc(F)c(Nc3ncccc3C(=O)O)c(F)c2)c1 [farudodstat] | No other tested DHODH inhibitor caused activation | No other tested DHODH inhibitor caused activation |
